Measured values published in patent publication US12391685B2, “Inhibitors of RNA-guided nuclease target binding and uses thereof” (THE BROAD INSTITUTE, INC., priority 2018, dated 2025).
pKd: −log10 of the molar value.

Legend:
[1] = target: T1, SpCas9:gRNA complex (Streptococcus pyogenes serotype M1, UniProt Q99ZW2); assay: Bio-layer interferometry (BLI), compound-SpCas9 interaction; type: binding, S. pyogenes; settings: 1 μM biotinylated compound on streptavidin sensors, SpCas9:gRNA 0.15-1 μM; read-out: dissociation constant
T1 construct: made in house; host or cells: E. coli Rosetta (DE3)
Description: Compound-SpCas9 interaction in BLI. The experiments were performed in a 96-well format with 180 μL reaction volume using […] and streptavidin sensors. 1 μM of the biotinylated compound was loaded onto the sensors for 180 s in 20 mM Tris buffer (100 mM KCl, 5 mM MgCl2, 1 mM DTT, 0.01% Tween, pH 7.4). Compound-loaded sensors were then allowed to associate with different concentrations of the SpCas9:gRNA complex (0.15-1 μM) for 300 s, followed by dissociation in reaction buffer. The reference sensor was loaded with compound and allowed to associate and dissociate in reaction buffer alone. Response curves were fitted with a 2:1 stoichiometric model and a global fit steady-state analysis was performed using manufacturer's protocol. Experiments were performed in triplicate.
Competition experiments were performed using biotin-linker fragment. In this experiment, streptavidin sensors were pre-incubated with 10 μM of biotin-linker for 10 min before dipping into a solution of either 1 μM BRD7087-biotin or reaction buffer alone. Sensors were then allowed to associate with different concentration of SpCas9:gRNA complex (0.15-1 μM) or buffer alone.

[2] = target: T2, dCas9-based transcription-activation complex (Streptococcus pyogenes serotype M1, UniProt Q99ZW2, D10A, form not given); assay: dCas9-based transcription activation of HBG1 in HEK293FT cells (RT-qPCR); type: cell-based, S. pyogenes; settings: 20 μM
T2 construct: "dSpCas9|Feng Zhang lab|NA"; The MS2-p65-HSF1(-GFP) effector is a separate chain recruited through MS2 aptamers in the sgRNA
Description: Transcription activation experiments and quantitative RT-PCR analyses. HEK293FT cells were maintained in high glucose DMEM with glutamax (Life Technologies) and supplemented with 10% FBS (Life Technologies), 1% penicillin-streptomycin (Life Technologies) and 1 mM sodium pyruvate (Life Technologies). For transcription activation experiments, 20,000 cells/well were plated in a poly D-lysine-coated 96-well plate. The cells were transiently transfected with a 1:1:1 mass ratio of the dCas9 plasmid, MS2-P65-HSF1 effector plasmid and the sgRNA plasmid targeting the HBG1 gene or an RFP control plasmid. A total of 0.3 μg plasmid DNA was transfected using Lipofectamine 2000 (Life Technologies) according to manufacturer's protocol. Immediately after transfection, the cells were treated with an appropriate dose of the small-molecule inhibitors. A DMSO solution of compound (20 mM) was resuspended in the 10% FBS containing growth media and thoroughly mixedbefore adding to the cells. After 48 h the cells were lysed and 5 μL of the cell lysate was used to perform reverse transcription using the RevertAid RT Reverse Transcription Kit (Thermo Fischer Scientific) as described by Joung J. et al. qPCR reactions were performed to quantify RNA expression using the TaqMan probes (Life Technologies, HBG1/HBG2: Hs00361131_g1, ACTB: Hs01060665_g1) and TaqMan Fast Advanced Master Mix (Life Technologies) in 5 μL multiplexed reactions and 384-well format using the LightCycler 480 Instrument II (Roche). For each sample, four technical replicates were performed. Data were analyzed using the LightCycler 480 software (Roche) by the ΔΔCt method: Ct values for the gene of interest (HBG1) were normalized to Ct values for the housekeeping gene (ACTB), and fold-changes in the expression level of gene of interest were normalized to RFP-transfected control. The data is reported as mean±S.E.M. for technical replicates.

[3] = target: T3, SpCas9 (Streptococcus pyogenes serotype M1, UniProt Q99ZW2); assay: NHEJ assay in HEK293T cells; type: cell-based, S. pyogenes; settings: 2-10 μM, 24 h
Description: NHEJ assay. Approximately 8,000 cells/well were seeded in a 96-well plate 24 h before transient transfection with a total 100 ng of DN66 (mCherry—TAG—GFP reporter) and DN78 (SpCas9 and gRNA) plasmids (1:1) using Lipofectamine 2000 (Life Technologies) (Nguyen et al., 2016b). Transfected cells were incubated with the indicated amount of small molecule or DMSO for 24 h. Cells were then fixed using 4% paraformaldehyde and imaged with the HCS NuclearMask™ Blue Stain (Life Technologies) as the nuclear counter-staining agent. Imaging was performed with an ImageXpress Micro automated microscope (Molecular Devices) at 4× magnification under three excitation channels (blue, green and red) with 9 acquisition sites per well. Images were analyzed in the MetaXpress software to determine the % NHEJ and the data were plotted using GraphPad Prism 6. The Z′-value was calculated following the formula: Z′=1−(3(σ1+σ2))/(|μ1−μ2|) where σ1 and σ2 are the standard deviations of DN66 transfected wells and (DN66+DN78) transfected wells respectively. μ1 and μ2 are the mean % GFP cell population for DN66 transfected wells and (DN66+DN78) transfected wells respectively.

[4] = target: T3, SpCas9; assay: eGFP-disruption assay in U2OS.eGFP.PEST cells; type: cell-based, S. pyogenes; parameters: host or cells: U2OS.eGFP.PEST; settings: U2OS.eGFP.PEST cells
Description: SpCas9 nuclease activity in eGFP-disruption assay. Approximately 200,000 U2OS.eGFP-PEST cells were nucleofected following two different methods either by nucleofecting plasmids or RNP using the SE Cell Line 4D-Nucleofector™ X Kit (Lonza) according to the manufacturer's protocol. In the plasmid nucleofection method, cells were nucleofected either with 440 ng of SpCas9 (Addgene Plasmid #43861) or 400 ng of SpCas9 along with 40 ng of sgRNA (pFYF1320 eGFP Site #1, Addgene Plasmid #47511). Cells nucleofected only with SpCas9-expressing plasmid were used as the transfection control. In the RNP nucleofection method, either […] SpCas9 or 20 pmol preformed SpCas9:gRNA (eGFP Site #1) complex were nucleofected. Approximately 20,000 transfected cells/well were plated in 4 replicates in a 96-well plate (Corning® 3904). Cells were incubated with the indicated amount of compound or DMSO for 24 h post transfection. A DMSO solution of compound (20 mM) was resuspended in the 10% FBS containing growth media and thoroughly mixed before adding to the cells. Cells were then fixed using 4% paraformaldehyde and imaged with the HCS NuclearMask™ Blue Stain (Life Technologies) as the nuclear counter-staining agent. Imaging was performed with an ImageXpress Micro automated microscope (Molecular Devices) at 10× magnification under three excitation channels (blue, green and red) acquiring nine sites per well. Images were analyzed using MetaXpress software and data were plotted using GraphPad Prism 6.
The Z′-value was calculated using the equation (1), where σ1 and σ2 are the standard deviations of DMSO control and SpCas9:gRNA control respectively. μ1 and μ2 are the mean % GFP^− cell population for DMSO control and SpCas9:gRNA control, respectively.

[5] = target: T3, SpCas9; assay: mKate2-disruption assay in HEK293T cells; type: cell-based, S. pyogenes; settings: 1.5-5 μM, 24 h
Description: mKate2-disruption assay. Approximately 8,000 cells/well were seeded in a 96-well plate 24 h before transient transfection with 100 ng of either CgRNA (Addgene Plasmid #64955) or T1gRNA (Addgene Plasmid #62717) plasmids using Lipofectamine 2000 (Life Technologies). Transfected cells were allowed to grow in the indicated amount of small molecule or DMSO for 24 h. Cells were then fixed using 4% paraformaldehyde and imaged with the HCS NuclearMask™ Blue Stain (Life Technologies) as the nuclear counter-staining agent. Imaging was performed with an ImageXpress Micro automated microscope (Molecular Devices) at 20× magnification under two excitation channels (blue and red) with 9 acquisition sites per well. Images were analyzed using the MetaXpress software to determine the % mKate2 positive cells and data was plotted using GraphPad Prism 6. The Z′-value was calculated following the formula: Z′=1−(3(σ1+σ2))/(|μ1−μ2|) where σ1 and σ2 are the standard deviations of CgRNA transfected wells and T1gRNA transfected wells respectively. μ1 and μ2 are the mean % RFP^+ cell population for CgRNA transfected wells and T1gRNA transfected wells, respectively.

[6] = system: U2OS.eGFP.PEST cells and HEK293T cells; assay: Cell viability (ATP content); settings: 5-20 μM, 24 h
[7] = target: T3, SpCas9; assay: In vitro pulldown from WM793-SpCas9 cell lysate; type: binding, S. pyogenes; parameters: host or cells: U2OS.eGFP.PEST; settings: streptavidin magnetic beads, 12 h
[8] = target: T3, SpCas9; assay: In vitro pull-down assay with preformed SpCas9:gRNA complex; type: binding, S. pyogenes; parameters: made in house; host or cells: E. coli Rosetta (DE3)
Description: In vitro pull-down assay. Pull-down of SpCas9 by biotinylated compound was performed by incubating a preformed SpCas9:gRNA complex with biotin-compound pre-loaded streptavidin magnetic beads. Initially, a 5 μM biotin compound was incubated with 120 μL streptavidin magnetic bead suspension for 30 min in 1× Cas9 activity buffer (20 mM Tris-HCl buffer, 150 mM KCl, 5 mM MgCl2, 1 mM DTT, pH 7.5). Next, beads were collected and washed with buffer twice and resuspended in 120 μL of 1× Cas9 activity buffer and distributed in 6 different tubes. A 0.3 μM of 480 μL of preformed SpCas9:gRNA complex were added to each tube along with the unlabeled BRD3433 compound (5 μM and 10 μM) in the competition experiment. The tubes were incubated at 4° C. for 12 h before collecting the beads and washed with 500 μL 1× Cas9 activity buffer. The beads were resuspended in 1× SDS gel loading buffer and denatured at 98° C. for 10 min. The samples were analyzed by electrophoresis followed by staining with Coomassie for 15 min before imaging.

T3 sequence (Q99ZW2 whole entry): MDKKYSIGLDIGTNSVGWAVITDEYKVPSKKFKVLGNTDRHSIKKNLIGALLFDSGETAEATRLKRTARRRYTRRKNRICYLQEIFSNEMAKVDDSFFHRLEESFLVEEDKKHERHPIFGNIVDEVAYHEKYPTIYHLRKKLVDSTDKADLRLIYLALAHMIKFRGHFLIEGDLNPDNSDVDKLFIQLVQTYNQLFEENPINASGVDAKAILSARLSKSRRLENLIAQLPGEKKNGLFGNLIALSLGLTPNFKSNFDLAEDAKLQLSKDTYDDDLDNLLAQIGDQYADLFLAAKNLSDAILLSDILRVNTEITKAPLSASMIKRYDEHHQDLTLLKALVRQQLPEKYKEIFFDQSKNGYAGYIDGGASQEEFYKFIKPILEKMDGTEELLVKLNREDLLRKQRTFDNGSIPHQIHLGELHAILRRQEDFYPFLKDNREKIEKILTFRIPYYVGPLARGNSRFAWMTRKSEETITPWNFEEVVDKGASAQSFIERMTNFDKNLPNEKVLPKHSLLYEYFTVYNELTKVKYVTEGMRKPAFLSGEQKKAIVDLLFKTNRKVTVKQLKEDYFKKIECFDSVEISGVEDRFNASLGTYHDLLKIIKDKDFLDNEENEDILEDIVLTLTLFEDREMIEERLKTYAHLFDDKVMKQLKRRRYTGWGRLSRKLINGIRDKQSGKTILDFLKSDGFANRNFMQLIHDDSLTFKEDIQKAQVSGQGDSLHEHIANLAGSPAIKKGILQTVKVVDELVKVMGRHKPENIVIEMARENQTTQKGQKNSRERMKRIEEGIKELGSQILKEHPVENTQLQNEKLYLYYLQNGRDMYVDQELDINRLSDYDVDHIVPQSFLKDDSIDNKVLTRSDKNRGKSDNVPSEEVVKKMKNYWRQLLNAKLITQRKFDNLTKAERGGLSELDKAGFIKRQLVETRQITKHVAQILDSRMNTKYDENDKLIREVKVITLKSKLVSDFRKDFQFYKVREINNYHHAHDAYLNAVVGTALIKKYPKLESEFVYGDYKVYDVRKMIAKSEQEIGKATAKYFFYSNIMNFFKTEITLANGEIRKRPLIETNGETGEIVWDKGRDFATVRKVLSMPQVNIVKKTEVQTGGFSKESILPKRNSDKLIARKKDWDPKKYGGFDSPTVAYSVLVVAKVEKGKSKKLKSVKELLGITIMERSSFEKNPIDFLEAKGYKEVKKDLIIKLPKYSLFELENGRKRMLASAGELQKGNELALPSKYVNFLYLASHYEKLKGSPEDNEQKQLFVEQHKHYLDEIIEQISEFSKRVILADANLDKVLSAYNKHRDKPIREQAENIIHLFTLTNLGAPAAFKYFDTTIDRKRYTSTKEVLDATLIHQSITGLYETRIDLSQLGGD
T2 sequence (Q99ZW2 whole entry, form open, one chain of several, change not shown): as the sequence (Q99ZW2 whole entry) above
T1 sequence (Q99ZW2 whole entry, one chain of several): as the sequence (Q99ZW2 whole entry) above

SMILES: O=C(CCCC[C@@H]1SC[C@@H]2NC(=O)N[C@@H]21)NCCOCCOCCOCCC(=O)Nc1cccc(-c2ccc3c(c2)[C@H]2[C@H](CCN2Cc2ccncc2)[C@@H](CO)N3)c1 [BRD3539, N-(2-(2-(2-(3-((3-((3aR,4S,9bR)-4-(Hydroxymethyl)-1-(pyridin-4-ylmethyl)-2,3,3a,4,5,9b-hexahydro-1H-pyrrolo[3,2-c]quinolin-8-yl)phenyl)amino)-3-oxopropoxy)ethoxy)ethoxy)ethyl)-5-((3aS,4S,6aR)-2-oxohexahydro-1H-thieno[3,4-d]imidazol-4-yl) pentanamide]
- pKd [1]: 6.15

SMILES: COc1ccc(-c2ccc3c(c2)[C@H]2[C@H](CCN2Cc2ccncc2)[C@@H](CO)N3)cc1 [BRD5779, ((3aR,4S,9bR)-8-(4-Methoxyphenyl)-1-(pyridin-4-ylmethyl)-2,3,3a,4,5,9b-hexahydro-1H-pyrrolo[3,2-c]quinolin-4-yl) methanol]
- inhibition of transcriptional activation [2]: ~60%
- inhibition of SpCas9 in the NHEJ assay (in words) [3]: dose-dependent inhibition
- inhibition of SpCas9 in the eGFP-disruption assay (in words) [4]: dose-dependent inhibition
- inhibition of SpCas9 in the mKate2 disruption assay (in words) [5]: dose-dependent inhibition
- cytotoxicity (in words) [6]: non-cytotoxic

SMILES: Cc1ccc(S(=O)(=O)N2CC[C@@H]3[C@H](CNC(=O)CCOCCOCCOCCNC(=O)CCCC[C@@H]4SC[C@@H]5NC(=O)N[C@@H]54)Nc4ccc(-c5ccccc5F)cc4[C@@H]32)cc1 [biotinylated BRD0539, N-(1-((3aR,4R,9bR)-8-(2-fluorophenyl)-1-tosyl-2,3,3a,4,5,9b-hexahydro-1H-pyrrolo[3,2-c]quinolin-4-yl)-3-oxo-6,9,12-trioxa-2-azatetradecan-14-yl)-5-((3aS,4S,6aR)-2-oxohexahydro-1H-thieno[3,4-d]imidazol-4-yl) pentanamide]
- pulldown of SpCas9 from WM793-SpCas9 cell lysate [7]: able to pulldown SpCas9

SMILES: COc1cccc(-c2ccc3c(c2)[C@H]2[C@H](CCN2C(=O)Cc2ccncc2)[C@H](CNC(=O)CCOCCOCCOCCNC(=O)CCCC[C@@H]2SC[C@@H]4NC(=O)N[C@@H]42)N3C)c1 [biotinylated BRD3433, N-(1-((3aS,4R,9bR)-8-(3-methoxyphenyl)-5-methyl-1-(2-(pyridin-4-yl)acetyl)-2,3,3a,4,5,9b-hexahydro-1H-pyrrolo[3,2-c]quinolin-4-yl)-3-oxo-6,9,12-trioxa-2-azatetradecan-14-yl)-5-((3aS,4S,6aR)-2-oxohexahydro-1H-thieno[3,4-d]imidazol-4-y1) pentanamide]
- pull-down of SpCas9 (gel electrophoresis) [8]: enrichment of SpCas9 in the eluent
